From patent US4937249A, “Imide derivatives and their pharmaceutical use” (Sumitomo Pharmaceuticals Company, Limited, priority 1987, dated 1990)
Like-named read-outs stand apart in the source and are kept apart here.

How the values were obtained:
[1] = test system: climbing behavior induced by apomorphine in mice; assay: Anti-climbing activity (climbing behavior induced by apomorphine in mice); type: in vivo, mice (dd strain male); conditions: Mus musculus, po
Text: This activity was examined through the anticlimbing behavior test, i.e. the test for suppressing the climbing behavior induced by apomorphine in mice. A designed amount of the test compound was orally administered to several groups of dd strain male mice (bodyweight, 20 to 25 g; one group, 5 mice), and each of the animals was charged in an individual column cage of 12 cm in diameter and 14 cm in height having metal poles (each pole, 2 mm in diameter) vertically installed and arranged along the periphery with intervals of 1 cm. […]
0 All the paws were on the floor
1 Only forepaws seized the pole of the cage
2 All the paws seized the pole of the cage;
climbing behavior observed discontinu-
3 Continuous climbing behavior observed

dopamine D2 receptor = target: T1, dopamine D2 receptor (Bos taurus, UniProt P20288); assay: Dopamine D2 receptor binding assay (displacement of [3H] spiperone, membrane fractions of corpus striatum); design: species or system bovine
T1 construct: from tissue; host or cells: bovine corpus striatum, washed membrane fractions
T1 sequence (P20288 whole entry): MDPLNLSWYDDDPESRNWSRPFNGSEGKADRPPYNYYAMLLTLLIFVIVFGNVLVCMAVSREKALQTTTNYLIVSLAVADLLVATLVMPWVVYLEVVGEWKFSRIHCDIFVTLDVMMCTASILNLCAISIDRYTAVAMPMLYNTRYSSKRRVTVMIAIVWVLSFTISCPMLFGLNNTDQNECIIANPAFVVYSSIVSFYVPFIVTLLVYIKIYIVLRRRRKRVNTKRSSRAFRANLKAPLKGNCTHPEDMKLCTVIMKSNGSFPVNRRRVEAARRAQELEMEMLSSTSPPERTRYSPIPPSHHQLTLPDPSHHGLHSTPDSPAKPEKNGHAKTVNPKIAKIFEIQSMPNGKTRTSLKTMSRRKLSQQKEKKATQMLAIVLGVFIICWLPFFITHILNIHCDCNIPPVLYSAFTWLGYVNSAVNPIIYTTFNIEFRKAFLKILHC
Method: Fresh corpus striatum taken out from bovine brain was homogenized in a 20-fold dilution of Tris-HCl buffer solution (pH, 7.4; 0.05 M) and centrifuged (50,000×g) for 10 minutes to give the membrane fractions, which were washed with the same volume of the buffer solution twice to give the membrane fractions for assay.
Number of bindings specific to the D2 receptor in [^3 H] spiperone in a designed concentration of the test compound was measured according to the following equation and the IC50 and Ki was determined thereon on the basis of a hill plot: [formula] l: concentration of [^3 H] spiperone on assay KD : dissociation constant of [^3 H] spiperone

5-HT2 receptors = assay: Anti-head twitching activity (anti-5-HT2 activity; 5-methoxytryptamine-induced head twitches in mice); type: in vivo, mice (dd strain male); conditions: Mus musculus, po, nialamide 30 mg/kg i.p., 5-MT 2.5 mg/kg i.v., head twitches for 3 minutes
Method: It is known that the efficacy on the negative symptom can be evaluated through anti-5-hydroxytryptamine 2 (5-HT2) activity. […] Based on the above knowledges, test for measurement of head twitches in mice was carried out for evaluation of the anti-5-HT2 activity.

[2] = 1 hr, apomorphine 1.0 mg/kg s.c., mice, read-out: ED50 (p.o.) 1 hr

Structure (SMILES): CN(C)CCCN1c2ccccc2Sc2ccc(Cl)cc21 [Chlorpromazine, 2-chloro-10-(3-dimethylaminopropyl)-phenothiazine]
- ED50 ([1]; 1 h, read-out: ED50 (p.o.) 1 hr): 1.8 mg/kg
- ED50 ([1]; 4 h, read-out: ED50 (p.o.) 4 hrs): 8.8 mg/kg

Structure (SMILES): O=C1C2CCCCC2C(=O)N1CCCCN1CCC(c2noc3cc(F)ccc23)CC1 (stereo not drawn) [Example 1, N-[4-{4-(6-Fluoro-1,2-benzisoxazol-3-yl)piperidinyl}butyl]cyclohexane-1,2-dicarboximide]
- Ki (dopamine D2 receptor; [3H] spiperone 1 nM, 37° C., 30 minutes, bovine corpus striatum membranes, read-out: Ki): 0.37 nM
- ED50 [1, 2]: 0.92 mg/kg
- ED50 ([1]; 4 hrs, apomorphine 1.0 mg/kg s.c., mice, read-out: ED50 (p.o.) 4 hrs): 2.3 mg/kg
- ED50 (5-HT2 receptors): 0.3 to 1 mg/kg

Structure (SMILES): O=C1CC2(CCCC2)CC(=O)N1CCCCN1CCN(c2nsc3ccccc23)CC1 [Tiaspirone, 8-[4-(3-benzisothiazolyl)-1-piperazinylbutyl]-8-azaspiro[4,5]decane-7,9-dione]
- Ki (dopamine D2 receptor): 0.5 nM
- ED50 [1, 2]: 9.4 mg/kg
- ED50 (5-HT2 receptors): 4 mg/kg
